# In patent US8247211B2, “Glycopeptide antibiotics” (American Cyanamid Company, priority 2001, dated 2012):
# How the values were obtained:
# Test in all cases: In vitro antibacterial evaluation: minimum inhibitory concentration (MIC), broth dilution method
# Assay type in all cases: cell-based
# Staphylococcus sp. = conditions: broth dilution, 18 hours at 35° C.; for MIC Staphylococcus aureus-SMITH (GC 4543): strain SMITH GC 4543
# In short: (§1)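 Using Muller-Hinton II […] and an inoculum of 5×10^5 CFU/mL, antibiotic dilutions from 64 down to 0.06 μg/mL were tested following NCCLS M7-A2. The MIC is the lowest concentration inhibiting growth, including in methicillin-, penicillin- or vancomycin-resistant clinical isolates.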
# Streptococcus sp. = conditions: broth dilution, 18 hours at 35° C.
# In short: as §1
# Enterococcus sp. = conditions: broth dilution, 18 hours at 35° C.
# In short: as §1
# Escherichia coli = conditions: broth dilution, 18 hours at 35° C.
# [1] = Streptococcus agalactiae (GC 4564)
# [2] = Streptococcus pneumoniae (ATCC 6301)
# [3] = Streptococcus pneumoniae (GC 1894)
# [4] = Streptococcus pneumoniae (GC 4565)
# [5] = Streptococcus pyogenes (GC 4563)
# [6] = Enterococcus faecalis (ATCC 29212)
# [7] = Enterococcus faecalis (GC 2242)
# [8] = Enterococcus faecalis (GC 2691)
# [9] = Enterococcus faecalis (GC 3059)
# [10] = Enterococcus faecalis (GC 4552)
# [11] = Enterococcus faecalis (GC 4553)
# [12] = Enterococcus faecalis (GC 4554)
# [13] = Enterococcus faecalis (GC 6189)
compound,measurement,setting,value
CC(c1ccccc1)C1NC(=O)CNC(=O)C(CO)NC(=O)C(C(O)C2CNC(=N)N2C2OC(CO)C(O)C(O)C2O)NC(=O)C(C(O)C2CNC(=N)N2)NC(=O)C(Cc2ccc3oc(SCc4ccc(-c5ccccc5)cc4)nc3c2)NC1=O (stereo not drawn) [Example 47],MIC Coagulase Negative Staphylococcus (GC 4547),Staphylococcus sp.,16 µg/mL
same,MIC Coagulase Negative Staphylococcus (GC 4548),Staphylococcus sp.,2 µg/mL
same,MIC Coagulase Negative Staphylococcus (GC 4549),Staphylococcus sp.,0.5 µg/mL
same,MIC Coagulase Negative Staphylococcus (GC 4551),Staphylococcus sp.,8 µg/mL
same,MIC Staphylococcus aureus SMITH (GC 4543),Staphylococcus sp.,8 µg/mL
same,MIC Staphylococcus haemolyticus (GC 4546),Staphylococcus sp.,8 µg/mL
same,MIC Staphylococcus aureus-SMITH (GC 4543),Staphylococcus sp.,8 µg/mL
same,MIC Streptococcus agalactiae (GC 4564),Streptococcus sp.; [1],2 µg/mL
same,MIC Streptococcus pneumoniae (ATCC 6301),Streptococcus sp.; [2],4 µg/mL
same,MIC Streptococcus pneumoniae (GC 1894),Streptococcus sp.; [3],2 µg/mL
same,MIC Streptococcus pneumoniae (GC 4565),Streptococcus sp.; [4],8 µg/mL
same,MIC Streptococcus pyogenes (GC 4563),Streptococcus sp.; [5],1 µg/mL
same,MIC Streptococcus agalactiae (GC 4564),Streptococcus sp.,2 µg/mL
same,MIC Streptococcus pneumoniae (ATCC 6301),Streptococcus sp.,4 µg/mL
same,MIC Streptococcus pneumoniae (GC 1894),Streptococcus sp.,2 µg/mL
same,MIC Streptococcus pneumoniae (GC 4565),Streptococcus sp.,8 µg/mL
same,MIC Streptococcus pyogenes (GC 4563),Streptococcus sp.,1 µg/mL
same,MIC Enterococcus avium (GC 4558),Enterococcus sp.; Enterococcus avium (GC 4558),2 µg/mL
same,MIC Enterococcus faecalis (ATCC 29212),Enterococcus sp.; [6],8 µg/mL
same,MIC Enterococcus faecalis (GC 2242),Enterococcus sp.; [7],4 µg/mL
same,MIC Enterococcus faecalis (GC 2691),Enterococcus sp.; [8],32 µg/mL
same,MIC Enterococcus faecalis (GC 3059),Enterococcus sp.; [9],32 µg/mL
same,MIC Enterococcus faecalis (GC 4552),Enterococcus sp.; [10],16 µg/mL
same,MIC Enterococcus faecalis (GC 4553),Enterococcus sp.; [11],4 µg/mL
same,MIC Enterococcus faecalis (GC 4554),Enterococcus sp.; [12],64 µg/mL
same,MIC Enterococcus faecalis (GC 6189),Enterococcus sp.; [13],32 µg/mL
same,MIC Enterococcus faecium (GC 2243),Enterococcus sp.; Enterococcus faecium (GC 2243),4 µg/mL
same,MIC Enterococcus faecium (GC 4556),Enterococcus sp.; Enterococcus faecium (GC 4556),8 µg/mL
same,MIC Enterococcus faecium (GC 4557),Enterococcus sp.; Enterococcus faecium (GC 4557),4 µg/mL
same,MIC Enterococcus avium (GC 4558),Enterococcus sp.,2 µg/mL
same,MIC Enterococcus faecalis (ATCC 29212),Enterococcus sp.,8 µg/mL
same,MIC Enterococcus faecalis (GC 2242),Enterococcus sp.,4 µg/mL
same,MIC Enterococcus faecalis (GC 2691),Enterococcus sp.,32 µg/mL
same,MIC Enterococcus faecalis (GC 3059),Enterococcus sp.,32 µg/mL
same,MIC Enterococcus faecalis (GC 4552),Enterococcus sp.,16 µg/mL
same,MIC Enterococcus faecalis (GC 4553),Enterococcus sp.,4 µg/mL
same,MIC Enterococcus faecalis (GC 4554),Enterococcus sp.,64 µg/mL
same,MIC Enterococcus faecalis (GC 6189),Enterococcus sp.,32 µg/mL
same,MIC Enterococcus faecium (GC 2243),Enterococcus sp.,4 µg/mL
same,MIC Enterococcus faecium (GC 4556),Enterococcus sp.,8 µg/mL
same,MIC Enterococcus faecium (GC 4557),Enterococcus sp.,4 µg/mL
same,MIC Escherichia coli (ATCC 25922),Escherichia coli,>64 µg/mL
same,MIC Escherichia coli (GC 4559),Escherichia coli,>64 µg/mL
same,MIC Escherichia coli (GC 4560),Escherichia coli,32 µg/mL
"CC(c1ccccc1)C1NC(=O)CNC(=O)C(CO)NC(=O)C(C(O)C2CNC(=N)N2C2OC(CO)C(O)C(O)C2O)NC(=O)C(C(O)C2CNC(=N)N2)NC(=O)C(Cc2ccc3oc(-c4ccc(Br)cc4)nc3c2)NC1=O (stereo not drawn) [Example 27, Cyclo[3-[2-(4-bromaphenyl)-1,3-benzoxazol-5-yl]alanyl-3-(2-iminoimidazolidin-4-yl)seryl-3-(3-hexopyranosyl-2-iminoimidazolidin-4-yl)serylserylglycyl-β-methylphenylalanyl]]",MIC Staphylococcus aureus-SMITH (GC 4543),Staphylococcus sp.,8 µg/mL
same,MIC Streptococcus agalactiae (GC 4564),Streptococcus sp.; [1],32 µg/mL
same,MIC Streptococcus pneumoniae (ATCC 6301),Streptococcus sp.; [2],16 µg/mL
same,MIC Streptococcus pneumoniae (GC 1894),Streptococcus sp.; [3],32 µg/mL
same,MIC Streptococcus pneumoniae (GC 4565),Streptococcus sp.; [4],16 µg/mL
same,MIC Streptococcus pyogenes (GC 4563),Streptococcus sp.; [5],8 µg/mL
same,MIC Streptococcus agalactiae (GC 4564),Streptococcus sp.,32 µg/mL
same,MIC Streptococcus pneumoniae (ATCC 6301),Streptococcus sp.,16 µg/mL
same,MIC Streptococcus pneumoniae (GC 1894),Streptococcus sp.,32 µg/mL
same,MIC Streptococcus pneumoniae (GC 4565),Streptococcus sp.,16 µg/mL
same,MIC Streptococcus pyogenes (GC 4563),Streptococcus sp.,8 µg/mL
same,MIC Enterococcus avium (GC 4558),Enterococcus sp.; Enterococcus avium (GC 4558),16 µg/mL
same,MIC Enterococcus faecalis (ATCC 29212),Enterococcus sp.; [6],32 µg/mL
same,MIC Enterococcus faecalis (GC 2242),Enterococcus sp.; [7],32 µg/mL
same,MIC Enterococcus faecalis (GC 2691),Enterococcus sp.; [8],32 µg/mL
same,MIC Enterococcus faecalis (GC 3059),Enterococcus sp.; [9],32 µg/mL
same,MIC Enterococcus faecalis (GC 4552),Enterococcus sp.; [10],64 µg/mL
same,MIC Enterococcus faecalis (GC 4553),Enterococcus sp.; [11],16 µg/mL
same,MIC Enterococcus faecalis (GC 4554),Enterococcus sp.; [12],32 µg/mL
same,MIC Enterococcus faecalis (GC 6189),Enterococcus sp.; [13],32 µg/mL
same,MIC Enterococcus faecium (GC 2243),Enterococcus sp.; Enterococcus faecium (GC 2243),32 µg/mL
same,MIC Enterococcus faecium (GC 4556),Enterococcus sp.; Enterococcus faecium (GC 4556),64 µg/mL
same,MIC Enterococcus faecium (GC 4557),Enterococcus sp.; Enterococcus faecium (GC 4557),8 µg/mL
same,MIC Enterococcus avium (GC 4558),Enterococcus sp.,16 µg/mL
same,MIC Enterococcus faecalis (ATCC 29212),Enterococcus sp.,32 µg/mL
same,MIC Enterococcus faecalis (GC 2242),Enterococcus sp.,32 µg/mL
same,MIC Enterococcus faecalis (GC 2691),Enterococcus sp.,32 µg/mL
same,MIC Enterococcus faecalis (GC 3059),Enterococcus sp.,32 µg/mL
same,MIC Enterococcus faecalis (GC 4552),Enterococcus sp.,64 µg/mL
same,MIC Enterococcus faecalis (GC 4553),Enterococcus sp.,16 µg/mL
same,MIC Enterococcus faecalis (GC 4554),Enterococcus sp.,32 µg/mL
same,MIC Enterococcus faecalis (GC 6189),Enterococcus sp.,32 µg/mL
same,MIC Enterococcus faecium (GC 2243),Enterococcus sp.,32 µg/mL
same,MIC Enterococcus faecium (GC 4556),Enterococcus sp.,64 µg/mL
same,MIC Enterococcus faecium (GC 4557),Enterococcus sp.,8 µg/mL
same,MIC Escherichia coli (ATCC 25922),Escherichia coli,32 µg/mL
same,MIC Escherichia coli (GC 4559),Escherichia coli,32 µg/mL
same,MIC Escherichia coli (GC 4560),Escherichia coli,8 µg/mL
"CC(c1ccccc1)C1NC(=O)CNC(=O)C(CO)NC(=O)C(C(O)C2CNC(=N)N2C2OC(CO)C(O)C(O)C2O)NC(=O)C(C(O)C2CNC(=N)N2)NC(=O)C(Cc2ccc(O)c(NC(=S)Nc3cc(C(F)(F)F)cc(C(F)(F)F)c3)c2)NC1=O (stereo not drawn) [Example 24, Cyclo[glycyl-β-methylphenylalanyl-3-[[[3,5-bis(trifluoromethyl)phenyl]carbamothioyl]amino]-tyrosyl-3-(2-iminoimidazolidin-4-yl)seryl-3-(3-hexopyranosyl-2-iminoimidazolidin-4-yl)-serylseryl]]",MIC Staphylococcus aureus-SMITH (GC 4543),Staphylococcus sp.,>64 µg/mL
same,MIC Streptococcus agalactiae (GC 4564),Streptococcus sp.; [1],>64 µg/mL
same,MIC Streptococcus pneumoniae (ATCC 6301),Streptococcus sp.; [2],>64 µg/mL
same,MIC Streptococcus pneumoniae (GC 1894),Streptococcus sp.; [3],64 µg/mL
same,MIC Streptococcus pneumoniae (GC 4565),Streptococcus sp.; [4],>64 µg/mL
same,MIC Streptococcus pyogenes (GC 4563),Streptococcus sp.; [5],64 µg/mL
same,MIC Streptococcus agalactiae (GC 4564),Streptococcus sp.,>64 µg/mL
same,MIC Streptococcus pneumoniae (ATCC 6301),Streptococcus sp.,>64 µg/mL
same,MIC Streptococcus pneumoniae (GC 1894),Streptococcus sp.,64 µg/mL
same,MIC Streptococcus pneumoniae (GC 4565),Streptococcus sp.,>64 µg/mL
same,MIC Streptococcus pyogenes (GC 4563),Streptococcus sp.,64 µg/mL
same,MIC Enterococcus avium (GC 4558),Enterococcus sp.; Enterococcus avium (GC 4558),64 µg/mL
same,MIC Enterococcus faecalis (ATCC 29212),Enterococcus sp.; [6],64 µg/mL
same,MIC Enterococcus faecalis (GC 2242),Enterococcus sp.; [7],64 µg/mL
same,MIC Enterococcus faecalis (GC 2691),Enterococcus sp.; [8],>64 µg/mL
same,MIC Enterococcus faecalis (GC 3059),Enterococcus sp.; [9],>64 µg/mL
same,MIC Enterococcus faecalis (GC 4552),Enterococcus sp.; [10],>64 µg/mL
same,MIC Enterococcus faecalis (GC 4553),Enterococcus sp.; [11],32 µg/mL
same,MIC Enterococcus faecalis (GC 4554),Enterococcus sp.; [12],>64 µg/mL
same,MIC Enterococcus faecalis (GC 6189),Enterococcus sp.; [13],>64 µg/mL
same,MIC Enterococcus faecium (GC 2243),Enterococcus sp.; Enterococcus faecium (GC 2243),64 µg/mL
same,MIC Enterococcus faecium (GC 4556),Enterococcus sp.; Enterococcus faecium (GC 4556),64 µg/mL
same,MIC Enterococcus faecium (GC 4557),Enterococcus sp.; Enterococcus faecium (GC 4557),32 µg/mL
same,MIC Enterococcus avium (GC 4558),Enterococcus sp.,64 µg/mL
same,MIC Enterococcus faecalis (ATCC 29212),Enterococcus sp.,64 µg/mL
same,MIC Enterococcus faecalis (GC 2242),Enterococcus sp.,64 µg/mL
same,MIC Enterococcus faecalis (GC 2691),Enterococcus sp.,>64 µg/mL
same,MIC Enterococcus faecalis (GC 3059),Enterococcus sp.,>64 µg/mL
same,MIC Enterococcus faecalis (GC 4552),Enterococcus sp.,>64 µg/mL
same,MIC Enterococcus faecalis (GC 4553),Enterococcus sp.,32 µg/mL
same,MIC Enterococcus faecalis (GC 4554),Enterococcus sp.,>64 µg/mL
same,MIC Enterococcus faecalis (GC 6189),Enterococcus sp.,>64 µg/mL
same,MIC Enterococcus faecium (GC 2243),Enterococcus sp.,64 µg/mL
same,MIC Enterococcus faecium (GC 4556),Enterococcus sp.,64 µg/mL
same,MIC Enterococcus faecium (GC 4557),Enterococcus sp.,32 µg/mL
same,MIC Escherichia coli (ATCC 25922),Escherichia coli,>64 µg/mL
same,MIC Escherichia coli (GC 4559),Escherichia coli,>64 µg/mL
same,MIC Escherichia coli (GC 4560),Escherichia coli,32 µg/mL
